These results are taken from patent US9492433B2, “Pharmaceutical composition for the treatment of Duchenne muscular dystrophy” (Summit Corporation Plc, priority 2012, dated 2016).

Values after ≈ are worked out from the molar mass of the structure shown. Read-outs that look alike come from different tables or passages of the source.

Holding throughout (assay type): physicochemical
The nature of series [1]: Solubility of C1100 Form I in pharmaceutically-acceptable solvents at 20° C. (HPLC of saturated solutions). The conditions noted are these: organic solvent or mixture, thermodynamic from solid, Form I polymorph, 4 hours equilibration. The procedure:
In each case, about 25 mg of drug substance was allowed to equilibrate with 250 μL of solvent over 4 hours. The resulting saturated solutions were filtered and analysed by HPLC.

The nature of series [2]: Gravimetric vapour sorption analysis. The following applies: Form I. An excerpt: Form I was subjected to gravimetric vapour sorption analysis, ramping profile from 0 to 90% RH at 10% RH increments.
The nature of series [3]: Solubility in water and corn oil.
Series [4] in a line: Water/octanol partition coefficient (ProfilerLDA isocratic chromatography). The conditions noted are these: octanol/water (octanol-coated column), pH 7.4; read-out: log D (water/octanol partition coefficient). The procedure: The water/octanol partition coefficient was determined with a ProfilerLDA isocratic chromatography system, using an octanol-coated column with octanol-saturated mobile phases.

In the case of `CCS(=O)(=O)c1ccc2oc(-c3ccc4ccccc4c3)nc2c1` [C1100, 5-(ethylsulfonyl)-2-(naphthalen-2-yl)benzo[d]oxazole], the solubility – broadly, the concentration that dissolves in the medium under given conditions – at 4 h in series [1] (solvent 1,4-dioxane) was determined as 28400 µg/mL (≈ 84.2 mM); in series [1] (solvent 1-butanol) it was 350 µg/mL (≈ 1.04 mM); in series [1] (solvent 1-propanol) it was 790 µg/mL (≈ 2.34 mM); in series [1] (solvent 2-butanol) it was 850 µg/mL (≈ 2.52 mM); in series [1] (solvent 2-propanol), 470 µg/mL (≈ 1.39 mM); in series [1] (solvent Acetone), 27500 µg/mL (≈ 81.6 mM). Further, the solubility at 4 h in series [1] (solvent Acetonitrile) is 5440 µg/mL (≈ 16.1 mM); in series [1] (solvent Butan-2-one), 3120 µg/mL (≈ 9.25 mM); in series [1] (solvent Chloroform), above 50000 µg/mL; in series [1] (solvent Dimethylformamide), above 33800 µg/mL; in series [1] (solvent Dimethylsulfoxide), 13200 µg/mL (≈ 39.1 mM); in series [1] (solvent Ethanol) it was 1140 µg/mL (≈ 3.38 mM). Also, the solubility at 4 h in series [1] (solvent Ethyl acetate) was determined as 8360 µg/mL (≈ 24.8 mM); in series [1] (solvent Heptane) it was 10900 µg/mL (≈ 32.4 mM); in series [1] (solvent Methanol), 1060 µg/mL (≈ 3.14 mM); in series [1] (solvent Tetrahydrofuran), 25900 µg/mL (≈ 76.8 mM); in series [1] (solvent Toluene), 8500 µg/mL (≈ 25.2 mM); in series [1] (solvent tert-butyl methyl ether (TBME)) it was 11700 µg/mL (≈ 34.6 mM). Also, the Moisture absorbed result in series [2] (0 to 90% RH at 10% RH increments, up to 90% RH, reversed under dry-air conditions) is reported as “no more than 0.25 % by weight”. Further, the Hygroscopicity result in series [2] (based on vapour sorption results) is “not hygroscopic”. Further, the solubility is 600 µg/mL (≈ 1.78 mM) in series [3] (oil or lipid, corn oil, very slightly soluble, read-out: Solubility in corn oil) and below 1 µg/mL in series [3] (water, practically insoluble, read-out: Solubility in water). Besides, in series [4], the chromatographic logD was 3.99 ± 0.01.
